Reference: patent US8987510B2, “Method for removal of the cyclic diester of a 2-hydroxy alkanoic acid from a vapor” (Purac Biochem BV, priority 2011, dated 2015)

What was measured:
[1] = formation of lactide precipitates in circulating aqueous washing solution contacted with lactide-containing vapor
From the text: In a first experiment according to the invention, a vapor which contains lactide (i.e. the dehydrated cyclic diester of lactic acid or 2-hydroxy propanoic acid) is guided via vapor inlet pipeline 1 into wet washing column 2 shown in FIG. 1. […] Column 2 comprises packed bed 3, which extends over the whole internal diameter of the column. The column is further equipped with a vapor outlet pipeline 4 and a liquid distributor 5. The vapor travels through packed bed 3 and exits the column via vapor outlet pipeline 4. […] Pump 6 further sucks the vapor containing the cyclic diester, such as lactide, from inlet pipeline 1, through column 2, packed bed 3 and outlet line 4 to an exhaust collection system (not shown).
Column 2 further comprises a liquid storage compartment 7, which contains an aqueous solution. Additional liquid can be introduced in compartment 7 via liquid inlet pipeline 8. […] This solution is circulated through a liquid circulation system comprising liquid circulation pipeline 9, which circulation is powered by liquid pump 10. In practice, the aqueous solution is pumped from the liquid storage compartment 7 via pipeline 9 and heat exchanger 11 to liquid distributor 5. In distributor 5, the alkaline solution is converted from a liquid stream into small droplets. These droplets fall onto and distribute over the upper surface 12 of packed bed 3. Due to gravity, the droplets of the aqueous solution travel through packed bed 3 and fall in the aqueous solution present in storage compartment 7. The size of compartment 7 depends on residence time required under the operation conditions used.
During the whole experiment, the pH of the solution was maintained above 10. This was achieved by the addition of a base. In the present experiment, sodium hydroxide was used as the base. It appeared to be advantageous to add the base continuously, preferably in liquid form. For this experiment, a commercially available stock solution of 50 w/w-% of NaOH in water (Brenntag, technical grade) was used. […]

[2] = solubility behavior of mandelide in neutral, acid and alkaline aqueous solution, visual inspection; type: physicochemical; conditions: 2% by weight mandelide, 20° C., stirred
From the text: In additional experiments according to the present invention, the lactide was replaced by mandelide, the cyclic diester of 2-hydroxy-2-phenylacetic acid (also known as mandelic acid). The solubility behavior of mandelide in a neutral solution, an acid solution and an alkaline solution has been monitored and mutually compared. For this purpose, the acid aqueous solution was made by dissolving 10% by weight of mandelic acid in water. An alkaline aqueous solution was made by adding NaOH until a pH of 13 was reached. The neutral aqueous solution consisted of pure, non-buffered water. To these three aqueous solutions, an amount of 2% by weight of mandelide was added. All solutions were kept at 20° C. and stirred for several hours. In this period of time, the solubility behavior of the mandelide in the aqueous solutions was followed by visual inspection.

Structure (SMILES)	lactide precipitates ([1]; alkaline aqueous solution, above pH 10, NaOH, around 15° C., approximately 15 mbar)	lactide precipitates ([1]; alkaline aqueous solution, pH between 7 and 10)	lactide precipitates ([1]; comparative: starting pH approximately 7, no base, pH drops below 4)	mandelide dissolved after 60 minutes ([2]; acid solution (10% by weight mandelic acid in water))	added mandelide dissolved after 60 minutes ([2]; alkaline solution (NaOH, pH 13))	mandelide dissolved after 60 minutes ([2]; neutral solution (pure, non-buffered water))
CC1OC(=O)C(C)OC1=O (stereo not drawn) [lactide]	no lactide precipitates have been observed	formation of small lactide precipitates can occur	part of the dissolved lactide precipitates	–	–	–
O=C1OC(c2ccccc2)C(=O)OC1c1ccccc1 (stereo not drawn) [mandelide]	–	–	–	almost all of the added mandelide was still not dissolved	approximately 50%	not been dissolved at all
